Assay results: publication PMC10814857, “Functional Classification and Interaction Selectivity Landscape of the Human SH3 Domain Superfamily” (Cells, 2024)
pKd: −log10 of the molar value. Several values for one entry are separate records, joined by “and”; a condition that tells them apart may be missing. Equal values may be shown once. Peptide text beside a SMILES is read from it.

How the values were obtained:
Experiment in all cases: Fluorescence polarization SH3 domain-PRP binding
Details in all cases: FP, 0.2 µM fluorescein-labeled peptide, SH3 domain 0-200 µM, Tris/HCl pH 7.5, 25 °C, quadratic fit
[1] = target: T1, ITSN1-5 SH3 domain (aa 1155-1214) (Homo sapiens, UniProt Q15811)
T1 construct: 1155-1214; GST (N); made in house; host or cells: Escherichia coli CodonPlus, Rosetta, BL21(DE3)
T1 sequence (Q15811 1155-1214): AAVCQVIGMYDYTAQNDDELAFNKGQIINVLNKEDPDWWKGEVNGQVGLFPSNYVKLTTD
Method in brief: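 First, labeled proline-rich peptide was held at 0.2 µM in 30 mM Tris/HCl (pH 7.5), 5 mM MgCl2, 3 mM DTT. Next, SH3 domains as GST fusions were added from 0 to 200 µM at 25 °C. Finally, polarization (470/560 nm) was fitted quadratically to give Kd.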

[2] = target: T2, BIN1 SH3 domain (aa 520-593) (Homo sapiens, UniProt O00499)
T2 construct: 520-593; GST (N); made in house; host or cells: Escherichia coli CodonPlus, Rosetta, BL21(DE3)
T2 sequence (O00499 520-593): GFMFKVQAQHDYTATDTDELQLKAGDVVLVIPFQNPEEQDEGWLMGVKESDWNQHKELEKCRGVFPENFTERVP
Description: (§1) The interaction between fluorescein-labeled proline-rich peptides (0.2 µM) and increasing concentrations of SH3 domains (ranging from 0 to 200 µM) was measured in a buffer (containing 30 mM Tris/HCl (pH 7.5), 5 mM MgCl2, and 3 mM DTT at 25 °C) in a total volume of 200 µL using a Fluoromax 4 fluorimeter in polarization mode and a quartz glass fluorescence cuvette (Hellma Ultra-Micro Cuvette 105.250-QS, Thermo Fisher Scientific, Waltham, MA USA). Excitation was performed at 470 nm and emission was measured at 560 nm. Dissociation constants (Kd) were determined by fitting the concentration-dependent binding curve to a quadratic ligand binding equation.
(§2) Fluorescence polarization measurements were performed to determine the binding affinities of SH3 domain–PRP interaction pairs from the dot blot analysis. SH3 proteins were titrated at increasing concentrations against fluorescent PRPs, which were kept at a constant concentration of 0.2 µM. GRB2-2^W193K, which is defective in the binding of PRPs such as RP1, was used as a negative control as previously described. […] The resulting data (Figure S6) allowed the evaluation of equilibrium dissociation constants (Kd) for 45 interactions between the SH3 domains and the PRPs (Figure 2B; Table S6).
(§3) Figure S6. Interactions of the SH3 domains with fluorescent PRPs measured by fluorescence polarization.
(§4) Fluorescent peptides (0.2 µM) were titrated with increasing concentrations of the corresponding SH3 domains.
(§5) GRB2-2W193K, defective in the binding of PRPs such as RP1, was used as a negative control as previously described. The x-axis represents SH3 domain concentrations as GST fusion proteins in µM, while the y-axis represents fluorescence polarization. The equilibrium dissociation constants (Kd) for the respective measurements were determined by fitting the titration curves to a quadratic ligand-binding equation (solid lines). All Kd values are […]
(§6) Error bars are derived from the fitting errors.
(§7) (1 picture or pasted object on this page, not shown here)

[3] = target: T3, ITSN1-2 SH3 domain (aa 913-971) (Homo sapiens, UniProt Q15811)
T3 construct: 913-971; GST (N); made in house; host or cells: Escherichia coli CodonPlus, Rosetta, BL21(DE3)
T3 sequence (Q15811 913-971): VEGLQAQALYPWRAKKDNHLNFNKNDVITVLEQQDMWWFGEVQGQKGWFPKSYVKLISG
Description: as §1, §2, §3, §4, §5, §6, §7

[4] = target: T4, ITSN1-1 SH3 domain (aa 740-806) (Homo sapiens, UniProt Q15811)
T4 construct: 740-806; GST (N); made in house; host or cells: Escherichia coli CodonPlus, Rosetta, BL21(DE3)
T4 sequence (Q15811 740-806): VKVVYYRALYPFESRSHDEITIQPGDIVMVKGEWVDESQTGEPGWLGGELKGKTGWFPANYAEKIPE
Description: as §1, §2, §3, §4, §5, §6, §7

[5] = target: T5, GRB2-1 SH3 domain (aa 1-58) (Homo sapiens, UniProt P62993)
T5 construct: 1-58; GST (N); made in house; host or cells: Escherichia coli CodonPlus, Rosetta, BL21(DE3)
Description: as §1, §2, §3, §4, §5, §6, §7

[6] = target: T6, GRB2-2 SH3 domain (aa 158-215) (Homo sapiens, UniProt P62993)
T6 construct: 158-215; GST (N); made in house; host or cells: Escherichia coli CodonPlus, Rosetta, BL21(DE3)
Description: as §1, §2, §3, §4, §5, §6, §7

[7] = target: T7, CRK-1 SH3 domain (aa 132-192) (Homo sapiens, UniProt P46108)
T7 construct: 132-192; GST (N); made in house; host or cells: Escherichia coli CodonPlus, Rosetta, BL21(DE3)
Description: as §1, §2, §3, §4, §5, §6, §7

[8] = target: T8, ARHGAP12 SH3 domain (aa 12-74) (Homo sapiens, UniProt Q8IWW6)
T8 construct: 12-74; GST (N); made in house; host or cells: Escherichia coli CodonPlus, Rosetta, BL21(DE3)
T8 sequence (Q8IWW6 12-74): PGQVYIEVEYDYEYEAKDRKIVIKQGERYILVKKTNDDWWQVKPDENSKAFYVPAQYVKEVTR
Description: as §1, §2, §3, §4, §5, §6, §7

[9] = target: T9, ITSN1-3 SH3 domain (aa 1002-1060) (Homo sapiens, UniProt Q15811)
T9 construct: 1002-1060; GST (N); made in house; host or cells: Escherichia coli CodonPlus, Rosetta, BL21(DE3)
T9 sequence (Q15811 1002-1060): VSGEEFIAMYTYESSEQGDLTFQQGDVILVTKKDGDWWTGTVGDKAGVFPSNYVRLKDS
Description: as §1, §2, §3, §4, §5, §6, §7

[10] = target: T10, ABI1 SH3 domain (aa 446-505) (Homo sapiens, UniProt Q8IZP0)
T10 construct: 446-505; GST (N); made in house; host or cells: Escherichia coli CodonPlus, Rosetta, BL21(DE3)
Description: as §1, §2, §3, §4, §5, §6, §7

[11] = target: T11, DLG2 SH3 domain (aa 536-606) (Homo sapiens, UniProt Q15700)
T11 construct: 536-606; GST (N); made in house; host or cells: Escherichia coli CodonPlus, Rosetta, BL21(DE3)
T11 sequence (Q15700 536-606): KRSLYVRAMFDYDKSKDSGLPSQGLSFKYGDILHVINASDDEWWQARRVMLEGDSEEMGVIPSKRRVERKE
Description: as §1, §2, §3, §4, §5, §6, §7

[12] = target: T12, ABL2 SH3 domain (aa 107-167) (Homo sapiens, UniProt P42684)
T12 construct: 107-167; GST (N); made in house; host or cells: Escherichia coli CodonPlus, Rosetta, BL21(DE3)
Description: as §1, §2, §3, §4, §5, §6, §7

T7 sequence (P46108 132-192): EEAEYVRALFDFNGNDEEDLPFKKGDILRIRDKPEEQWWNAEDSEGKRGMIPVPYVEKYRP
T10 sequence (Q8IZP0 446-505): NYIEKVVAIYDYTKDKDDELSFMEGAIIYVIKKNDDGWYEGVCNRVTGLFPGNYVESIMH
T5 sequence (P62993 1-58): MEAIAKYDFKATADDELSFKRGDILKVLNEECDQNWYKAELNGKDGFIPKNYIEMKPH
T6 sequence (P62993 158-215): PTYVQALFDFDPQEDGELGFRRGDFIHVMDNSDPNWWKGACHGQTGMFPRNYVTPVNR
T12 sequence (P42684 107-167): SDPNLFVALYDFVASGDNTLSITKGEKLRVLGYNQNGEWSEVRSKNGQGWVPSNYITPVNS

Row | Compound | pKd [1] | pKd [2] | pKd [3] | pKd [4] | pKd [5] | pKd [6] | pKd [7] | pKd [8] | pKd [9] | pKd [10] | pKd [11] | pKd [12]
1 | CC(C)C[C@H](NC(=O)[C@@H]1CCCN1C(=O)[C@@H](NC(=O)[C@H](CCCNC(=N)N)NC(=O)[C@@H]1CCCN1C(=O)[C@H](CO)NC(=O)[C@H](CC(N)=O)NC(=O)[C@@H]1CCCN1C(=O)[C@H](C)NC(=O)[C@@H](N)CO)[C@@H](C)O)C(=O)N[C@H](C(=O)N1CCC[C@H]1C(=O)N1CCC[C@H]1C(=O)N1CCC[C@H]1C(=O)N[C@@H](C)C(=O)N[C@@H](CO)C(=O)O)[C@@H](C)O [Peptide P1] (H-SAPNSPRTPLTPPPAS-OH) | 4.64 | < 3.70 | < 3.70 | < 3.70 | < 3.70 | < 3.70 | < 3.70 | < 3.70 | < 3.70 | < 3.70 | < 3.70 | < 3.70
2 | CC[C@H](C)[C@H](NC(=O)[C@H](Cc1c[nH]cn1)NC(=O)[C@@H](N)CCC(N)=O)C(=O)N1CCC[C@H]1C(=O)N[C@@H](CCCCN)C(=O)N[C@@H](CC(C)C)C(=O)N1CCC[C@H]1C(=O)N1CCC[C@H]1C(=O)N[C@@H](CCCCN)C(=O)N[C@H](C(=O)N[C@@H](Cc1ccc(O)cc1)C(=O)O)[C@@H](C)O [Peptide P10] (H-QHIPKLPPKTY-OH; N-terminus and C-terminus assumed) | < 3.70 | < 3.70 | < 3.70 | < 3.70 | < 3.70 | < 3.70 | < 3.70 | < 3.70 | < 3.70 | < 3.70 | < 3.70 | < 3.70
3 | C[C@H](N)C(=O)N[C@@H](Cc1ccccc1)C(=O)N[C@@H](Cc1ccccc1)C(=O)N1CCC[C@H]1C(=O)N[C@@H](CC(N)=O)C(=O)N[C@@H](CO)C(=O)N1CCC[C@H]1C(=O)N[C@@H](CO)C(=O)N1CCC[C@H]1C(=O)N[C@@H](Cc1ccccc1)C(=O)N[C@H](C(=O)N1CCC[C@H]1C(=O)N1CCC[C@H]1C(=O)N1CCC[C@H]1C(=O)N1CCC[C@H]1C(=O)N[C@@H](CCC(N)=O)C(=O)N[C@H](C(=O)N1CCC[C@H]1C(=O)N[C@@H](CO)C(=O)N1CCC[C@H]1C(=O)N[C@@H](Cc1c[nH]cn1)C(=O)NCC(=O)N[C@H](C(=O)O)[C@@H](C)O)[C@@H](C)O)[C@@H](C)O [Peptide P7] (H-AFFPNSPSPFTPPPPQTPSPHGT-OH) | < 3.70 | 4.92 | < 3.70 | < 3.70 | < 3.70 | < 3.70 | 4.74 | 6.70 and > 6.30 | < 3.70 | < 3.70 | 4.23 | 4.17
4 | CC[C@H](C)[C@H](N)C(=O)N[C@@H](C)C(=O)NCC(=O)N1CCC[C@H]1C(=O)N1CCC[C@H]1C(=O)N[C@H](C(=O)N1CCC[C@H]1C(=O)N1CCC[C@H]1C(=O)N[C@@H](CCCNC(=N)N)C(=O)N[C@@H](CCC(N)=O)C(=O)N[C@@H](CO)C(=O)O)C(C)C [Peptide P9] (H-IAGPPVPPRQS-OH) | < 3.70 | 4.33 | < 3.70 | < 3.70 | < 3.70 | < 3.70 | < 3.70 | < 3.70 | < 3.70 | < 3.70 | < 3.70 | < 3.70
5 | CC[C@H](C)[C@H](NC(=O)[C@H](C)NC(=O)[C@@H]1CCCN1C(=O)[C@@H]1CCCN1C(=O)[C@H](CO)NC(=O)[C@H](CC(=O)O)NC(=O)[C@@H](N)CC(C)C)C(=O)N1CCC[C@H]1C(=O)N1CCC[C@H]1C(=O)N[C@@H](CCCNC(=N)N)C(=O)N[C@@H](CCC(N)=O)C(=O)N1CCC[C@H]1C(=O)N[C@H](C(=O)N[C@@H](CO)C(=O)N[C@@H](CCCCN)C(=O)O)[C@@H](C)O [Peptide P4] (H-LDSPPAIPPRQPTSK-OH) | 4.92 | < 3.70 | < 3.70 | 5.18 | 4.22 | 4.70 | < 3.70 | < 3.70 | < 3.70 | 4.61 | < 3.70 | 3.90
